The text below walks through data of patent US5843968A, “Symmetrical bis-heteroarylmethoxy-phenylalkyl carboxylates as inhibitors of leukotriene biosynthesis” (Abbott Laboratories, priority 1997, dated 1998).

The inhibition in vivo is the share of the control response that was lost under treatment. Broadly, the IC50 is the midpoint of a concentration-inhibition curve.

The test system of one test is leukotriene biosynthesis. As to the kind of experiment: Inhibition of leukotriene biosynthesis in vivo, Ionophore-Induced Rat Pleural Inflammation Model. Particulars: 0.5 h, male rats, dosed in 0.2% methocel one hour prior to intrapleural A23187, lavage 30 min later, enzyme immunoassay. How it is done: Inhibition of leukotriene biosynthesis in vivo was evaluated using the Ionophore […]-Induced Rat Plueral Inflammation Model. […] Rats were dosed with experimental compounds in 0.2% methocel one hour prior to the intrapleural injection of the calcium ionophore, A23187. The rats where lightly anesthetized with Pentrane (Abbott Laboratories) and injected intrapleurally with 0.5 ml of 2% ethanol in injectable saline (Abbott Laboratories) containing 20 μg of A23187 (Cal BioChem-Novabiochem). Thirty minutes later the animals were euthanised and the pleural cavities lavaged with ice cold saline (Abbott Laboratories). The lavage fluid was then added to ice cold methanol (final methanol concentration 30%) to lyse cells and precipitate protein. Eicosanoids were determined by enzyme immunoassay by standard methods.

The next test concerns 5-Lipoxygenase. As to the kind of experiment: Inhibition of calcium ionophore-induced LTB4 formation in human polymorphonuclear leukocytes (PMNL), in vitro. It counts as cell-based. To be noted: 15 min preincubation, calcium ionophore stimulation 10 min at 37° C., LTB4 by enzyme-linked immunoassay or HPLC, read-out: IC50, In Vitro Inhibitory Potencies Against 5-Lipoxygenase From Stimulated LTB4 Formation in Human Polymorphonuclear Leukocytes. As to the method: Inhibition of leukotriene biosynthesis was evaluated in vitro using an assay involving calcium ionophore-induced LTB4 expressed in human polymorphornuclear leukocytes (PMNL). Human PMNL isolated from heparinized (20 USP units/mL) venous blood (25 mL) obtained from healthy volunteers was layered over an equal volume of Ficoll-Hypaque Mono-Poly Resolving Medium (ICN Flow, Costa Mesa, Calif.) and centrifugated at 400×g for 40 minutes at 20° C. The PMNL was collected, erythrocytes lysed and washed 2× and suspended at 1.0×10^7 cells/mL in Earle's balanced salt solution with 17 mM Earle's HEPES. Aliquots of the cell suspension were preincubated with test compounds dissolved in DMSO (final concentration <2%) for 15 minutes and stimulated with calcium ionophore (final concentration 8.3, μM) for 10 minutes at 37° C. Incubations were stopped with the addition of two volumes of ice-cold methanol followed by centrifuging the cell suspensions at 4° C. for 10 minutes at ~450×g. The amount of LTB4 in the methanol extract was analyzed by enzyme-linked immunoassay or by HPLC analysis.

Structures are written as SMILES. Counter-ions that a name gives are not always drawn. Like-named read-outs stand apart in the source and are kept apart here.

Regarding `CC(CCCC(=O)O)(c1ccc(OCc2ccc3ccccc3n2)cc1)c1ccc(OCc2ccc3ccccc3n2)cc1` [Example 14, 5,5-bis(4-(2-quinolylmethoxy)phenyl)hexanoic acid], the inhibition in vivo at 3 mg/kg in the test on leukotriene biosynthesis is 32%. For the same compound, the half-maximal inhibitory concentration (IC50) in the test with 5-Lipoxygenase amounted to 43 nM.
For `CC(CCCON=CC(=O)O)(c1ccc(OCc2ccc3ccccc3n2)cc1)c1ccc(OCc2ccc3ccccc3n2)cc1` [Example 5, [4,4-bis(4-(2-quinolylmethoxy)phenyl)pent-1-yl]iminoxyacetic acid], the IC50 in the test with 5-Lipoxygenase worked out at 30 nM.
Still for that read-out and setting: next, `CC(O)(c1ccc(OCc2ccc3ccccc3n2)cc1)c1ccc(OCc2ccc3ccccc3n2)cc1` [Example 25, 1,1-bis(4-(2-quinolylmethoxy)phenyl)ethanol]: 50 nM.
In the case of `CC(CCC(=O)O)(c1ccc(OCc2nc3ccccc3s2)cc1)c1ccc(OCc2nc3ccccc3s2)cc1` [Example 9, 4,4bis(4-(2-benzothiazoylmethoxy)phenyl)pentanoic acid sodium salt], the half-maximal inhibitory concentration (IC50) with 5-Lipoxygenase (sodium salt) worked out at 50 nM.
Consider `CC(C)(C(=O)O)C(c1ccc(OCc2ccc3ccccc3n2)cc1)c1ccc(OCc2ccc3ccccc3n2)cc1` [Example 26, 2,2-dimethyl-3,3-bis(4-(2-quinolylmethoxy)phenyl)propionic acid sodium salt], for which the inhibition in vivo at 3 mg/kg in the test on leukotriene biosynthesis was found to be 50%. For the same compound, the half-maximal inhibitory concentration (IC50) in the test with 5-Lipoxygenase worked out at 80 nM.
For the compound `O=C(O)C(c1ccc(OCc2ccc3cc(F)ccc3n2)cc1)c1ccc(OCc2ccc3cc(F)ccc3n2)cc1` [Example 30, 2,2-bis(4-(6-fluoro-2-quinolymethoxy)phenyl)acetic acid], the concentration for half-maximal inhibition (IC50) in the test on 5-Lipoxygenase was 50 nM.
The same measure, in the same setting: next, `CC(C)(CON=CC(=O)O)C(c1ccc(OCc2ccc3ccccc3n2)cc1)c1ccc(OCc2ccc3ccccc3n2)cc1` [Example 28, 2,2-dimethyl-3,3-bis(4-(2-quinolylmethoxy)phenyl)-1-propyliminoxyacetic acid]: 34 nM.
`CCC(C(=O)O)(c1ccc(OCc2ccc3ccccc3n2)cc1)c1ccc(OCc2ccc3ccccc3n2)cc1` [Example 24, 2,2-bis(4-(2-quinolylmethoxy)phenyl)butyric acid]: the inhibition in vivo at 3 mg/kg in the test on leukotriene biosynthesis came to 38%.
`CC(=NOCCC#CC(O)(c1ccc(OCc2ccc3ccccc3n2)cc1)c1ccc(OCc2ccc3ccccc3n2)cc1)C(=O)O` [Example 38, [5,5-bis(4-(2-quinolylmethoxy)phenyl)-5-hydroxy-3-pentyn-1-yl]-2-iminoxypropionic acid sodium salt] showed an inhibition in vivo at 3 mg/kg in the test on leukotriene biosynthesis of 40%. In the test on 5-Lipoxygenase, the IC50 came to 60 nM.
For the compound `CC(CCC=NOCC(=O)O)(c1ccc(OCc2ccc3ccccc3n2)cc1)c1ccc(OCc2ccc3ccccc3n2)cc1` [Example 7], in the test with 5-Lipoxygenase, the IC50 is 40 nM.
On to `CC(CCC(=O)O)(c1ccc(OCc2ccc3cc(F)ccc3n2)cc1)c1ccc(OCc2ccc3cc(F)ccc3n2)cc1` [Example 11, 4,4-bis(4-(6-fluoro-2-quinolylmethoxy)phenyl)pentanoic acid sodium salt], for which testing at 3 mg/kg in the test with leukotriene biosynthesis gave an inhibition in vivo of 42%. In the test on 5-Lipoxygenase, the 50% inhibitory concentration (IC50) worked out at 40 nM.
For the compound `CC(CCC(=O)O)(c1ccc(OCc2ccc3ccccc3n2)cc1)c1ccc(OCc2ccc3ccccc3n2)cc1` [Example 1, 4,4-bis(4-(2-quinolylmethoxy)phenyl)pentanoic acid], in the test with 5-Lipoxygenase, the IC50 was 40 nM.
On the same count and under the same terms, under `CC(=NOCCC(C)(c1ccc(OCc2ccc3ccccc3n2)cc1)c1ccc(OCc2ccc3ccccc3n2)cc1)C(=O)O` [Example 36, [3,3-bis-(2-quinolylmethoxyphenyl)but-1-yl]-2-iminoxypropionic acid] stands 25 nM.
For the compound `CC(CCC(=O)O)(c1ccc(OCc2ccc3ccccc3n2)c(Cl)c1)c1ccc(OCc2ccc3ccccc3n2)c(Cl)c1` [Example 20, 4,4-bis(3-chloro-4-(2-quinolylmethoxy)phenyl)pentanoic acid], in the test on 5-Lipoxygenase, the IC50 stood at 26 nM.
`CC(C)(C=NOCC(=O)O)C(c1ccc(OCc2ccc3ccccc3n2)cc1)c1ccc(OCc2ccc3ccccc3n2)cc1` [Example 27, sodium salt] had an inhibition in vivo at 3 mg/kg with leukotriene biosynthesis of 42%. The IC50 in the test with 5-Lipoxygenase was 28 nM.
For the compound `CC(CCC(=O)O)(c1ccc(OCc2ccc3ccccc3n2)cc1)c1ccc(OCc2ccc3ccccc3n2)cc1` [Example 2, 4,4-bis(4-(2-quinolylmethoxy)phenyl)pentanoic acid sodium salt], in the test with leukotriene biosynthesis, the inhibition in vivo at 3 mg/kg worked out at 53%. For the same compound, the IC50 with 5-Lipoxygenase (sodium salt) is 69 nM.
With `O=C(O)CON=CC(c1ccc(OCc2ccc3ccccc3n2)cc1)c1ccc(OCc2ccc3ccccc3n2)cc1` [Example 31, 2,2-bis(4-(2-quinolylmethoxy)phenyl)eth-1-yloximinoacetic acid], the IC50 with 5-Lipoxygenase was determined as 35 nM.
As for `CC(=NOCCCC(C)(c1ccc(OCc2ccc3ccccc3n2)cc1)c1ccc(OCc2ccc3ccccc3n2)cc1)C(=O)O` [Example 6, [4,4-bis(4-(2-quinolylmethoxy)phenyl)pent-1-yl]-2-iminoxypropionic acid], the concentration for half-maximal inhibition (IC50) in the test with 5-Lipoxygenase came to 35 nM.
On the same count and under the same terms, next, `CC(CCC(=O)O)(c1ccc(OCc2nc3ccccc3s2)cc1)c1ccc(OCc2nc3ccccc3s2)cc1` [Example 8, 4,4-bis(4-(2-benzothiazoylmethoxy)phenyl)pentanoic acid]: 46 nM.
`O=C(O)CC(c1ccc(OCc2ccc3ccccc3n2)cc1)c1ccc(OCc2ccc3ccccc3n2)cc1` [Example 34, 3,3-bis(4-(2-quinolylmethoxy)phenyl)propionic acid sodium salt] came in with an inhibition in vivo at 3 mg/kg in the test on leukotriene biosynthesis of 30%. The half-inhibitory concentration (IC50) in the test with 5-Lipoxygenase stood at 70 nM.
In the case of `CC(C(=O)O)(c1ccc(OCc2ccc3ccccc3n2)cc1)c1ccc(OCc2ccc3ccccc3n2)cc1` [Example 12, 2,2-bis(4-(2-quinolylmethoxy)phenyl)propionic acid], the half-inhibitory concentration (IC50) with 5-Lipoxygenase was 32 nM.
